Measurements: patent US9279812B2, “Neuregulin-1-based prognosis and therapeutic stratification of colorectal cancer” (UNIVERSITEIT GENT, priority 2011, dated 2016)

Tests used:
HCT-8/E11 cells [1] = experiment: Single cell collagen invasion assay, HCT-8/E11; type: cell-based, human; details: for CM^BM-MSC-induced invasion (invasion index) / CM^BM-MSC-induced morphological response (factor shape): cetuximab 3 μM, lapatinib 1 μM, trastuzumab and pertuzumab 25 μg/ml
Experimental: (§1) Collagen invasion assays were performed as described previously (45). Briefly, 1×10^5 CRC cells were seeded on type I collagen-coated 6-well plates and treated with CM derived from 5×10^5 BM-MSC or T-MC supplemented with DMEM 10% FBS and antibiotics as indicated.
(§2) Morphology and invasion into collagen was analysed after 24 hours and quantified by means of the factor shape ([perimeter]^2/[4πarea]) and invasion index. The number of invasive and noninvasive cells was counted in 10 randomly selected microscopic fields with a 20× objective and 10× eye piece by two blinded observers using an inverted phase-contrast microscope (DMI 3000B; Leica, Wetzlar, Germany). The invasion index was calculated as the ratio of the number of cells that invaded the gel divided by the total number of cells counted in each field. Collagen matrices were fixed in 3% paraformaldehyde for 10 minutes and phalloidin-TRITC (Sigma-Aldrich) staining as described (45). Cells were imaged with a Zeiss 510 META confocal laser-scanning microscope (Carl Zeiss, Micro-imaging Inc., Heidelberg, Germany) using a 488 argon and a 543 HeNe laser. Images were acquired using a Plan Apochromat 63×/1.4 oil DIC or a Plan Apochromat 100×/1.4 oil DIC objective. All the images shown are collapsed z-stacks.

HER3 = experiment: Western blot of Y1289 p-HER3 (HER3 activation) in HCT-8/E11 cells; type: cell-based, human; details: for decrease in CM^BM-MSC-induced HER3 activation (Y1289 p-HER3): HCT-8/E11, CM^BM-MSC 15 minutes, cetuximab 3 μM, lapatinib 1 μM, trastuzumab and pertuzumab 25 μg/ml
Experimental: (§3) Cells were harvested with Laemmli lysis buffer (0.125M Tris-HCl (pH=6.8), 10% glycerol, 2.3% sodium dodecyl sulfate [SDS]). Cell surface proteins were isolated by biotinylation (Pierce). For the detection of phosphorylated proteins, cells were grown at 70% confluence and treated for 15 minutes as indicated. Cells were harvested with NP-40 lysis buffer (1% Nonidet P-40 [NP-40][Sigma-Aldrich], 1% Triton X-100 [Bio-Rad] in phosphate-buffered saline [PBS]) and the following protease inhibitors: aprotinin (10 μg/mL), leupeptin (10 μg/mL) (ICN Biomedicals, Costa Mesa, Calif.), phenylmethylsulfonyl fluoride (1.72 mM), NaF (100 mM), NaVO3 (500 mM), and Na4P2O7 ([…]) (Sigma-Aldrich). Cell lysates (25 μg) and CM (20 μl) were suspended in Laemmli sample buffer and boiled for 5 minutes at 95° C. For immunoprecipitation, cells were harvested with NP-40 lysis buffer, and protease inhibitors. Anti-rabbit antibodies were covalently coupled to sheep anti-rabbit IgG dynabeads (Invitrogen) and then incubated for 2 hours at 4° C. with 500 μg of cell lysate or normal rabbit IgG antibody (R&D Systems) as a negative control. Immunoprecipitates were washed five times with lysis buffer, eluted with 100 μl of Laemmli lysis buffer, and boiled at 95° C. for 5 minutes. Samples were run on NuPAGE 4%-20% Bis-Tris gradient gels (Invitrogen), transferred to polyvinylidene fluoride membranes, blocked in 5% nonfat milk in PBS or 4% bovine serum albumin (BSA) in PBS for phosphorylated proteins with 0.5% Tween-20, and immunostained. Scanning densitometry was carried out with the Quantity One Program (Bio-Rad).

AKT = experiment: Western blot of S473 p-AKT (AKT activation) in HCT-8/E11 cells; type: cell-based, human; details: for reduction of AKT activation (S473 p-AKT) in CM^BM-MSC-treated cells: HCT-8/E11, CM^BM-MSC 15 minutes, cetuximab 3 μM, lapatinib 1 μM, trastuzumab and pertuzumab 25 μg/ml
Experimental: as §3

HER3 (human) = HER3 (human) (UniProt P21860); experiment: cell-based or functional assay
HCT-8/E11 cells [2] = experiment: Assessment of cell numbers (viable cells, serum-free); type: cell-based, human
Experimental: To assess the effect of rNRG-β1 or CM on cell numbers, a total of 9 wells of seeded cells were counted for each condition (triplicate samples×3 countings). First, 1×10^4 CRC cells were seeded on a 6-well plate in DMEM supplemented with 10% FCS. After 24 hours, cells were treated as indicated under serum-free conditions; medium was changed every 3 days. The total number of viable cells in each well was counted with a Countess automated cell counter (Invitrogen) every three days for 9 days; trypan blue staining was used for exclusion of dead cells.

[3] = system: HCT-8/E11+BM-MSC xenografts; experiment: s.c. xenografts of HCT-8/E11 cells with BM-MSC in Swiss nu/nu mice; type: in vivo
Experimental: Animal studies were approved by the Local Ethical Committee for Animal Experiments, Faculty of Medicine and Health Sciences, Ghent University, Belgium. Four-week-old female Swiss nu/nu mice (10 animals per group) (Charles River Laboratories, Brussels, Belgium) were inoculated subcutaneously (s.c.) with 10^6 CRC cells (HCT-8/E11, SW480 and HCT 116) either alone or combined with 2×10^6 BM-MSC suspended in 100 μl sterile PBS. To assess the effect of soluble factors on tumorigenesis, mice were inoculated s.c. with 10^6 cancer cells in 100 μl sterile CM derived from 2.5×10^6 BM-MSC, or control medium. For these experiments, intratumoral injection of the CM (50 μl) was performed every three days. […] Tumor volume was estimated by using the equation, V=0.4×a×b^2, where V is the volume, a is the length of the major axis of the tumor, and b is the length of its minor axis. he animals were sacrificed when the tumors were approximately 1-1.5 cm^3, in compliance with regulations for the use of vertebrate animals in research. Primary tumors were extracted, weighted and fixed in 4% buffered formol for 12 hours, followed by a wash with PBS. Fixed tumors were transferred to 70% ethanol until use. Tumors were embedded in paraffin, sectioned and stained with H&E. Immunohistochemistry (IHC) using TUNEL, anti-α-SMA (Biogenex), anti-vimentin and anti-Ki67 antibodies was performed on paraffin sections, using a NexES automated slide staining system (Ventana Medical Systems, Tucson, Ariz.). Cell proliferation (Ki67 positivity) was quantified as % of positive cancer cells per high power field averaged across 12 images from 2 primary tumors per cell line.

HER2 = experiment: Western blot of Y1196 and Y1248 p-HER2 in HCT-8/E11; type: cell-based, human; details: 10 ng/ml, 15 minutes
Experimental: as §3, with “Samples were run on NuPAGE 4%-20% Bis-Tris gradient gels (Invitrogen), transferred to polyvinylidene fluoride membranes, blocked in 5% nonfat milk in PBS or 4% bovine serum albumin (BSA) in PBS for phosphorylated proteins with 0.5% Tween-20, and immunostained.” left out

HCT 116 cells = experiment: Single cell collagen invasion assay, HCT 116; type: cell-based, human; details: HCT 116, 10 ng/ml, 24 hours, P=0.007
Experimental: as §1, §2

SW480 cells = experiment: Single cell collagen invasion assay, SW480; type: cell-based, human; details: SW480, 10 ng/ml, 24 hours, P=0.003
Experimental: as §1, §2

BAD = experiment: Western blot of S136 p-BAD in HCT-8/E11; type: cell-based, human; details: rNRG-β1-treated HCT-8/E11
Experimental: as §3, with “Samples were run on NuPAGE 4%-20% Bis-Tris gradient gels (Invitrogen), transferred to polyvinylidene fluoride membranes, blocked in 5% nonfat milk in PBS or 4% bovine serum albumin (BSA) in PBS for phosphorylated proteins with 0.5% Tween-20, and immunostained.” left out

BAX/BCL-2 = experiment: Western blot of BAX and BCL-2 expression in HCT-8/E11; type: cell-based, human; details: HCT-8/E11, 10 ng/ml, 6 hours
Experimental: as §3, with “Samples were run on NuPAGE 4%-20% Bis-Tris gradient gels (Invitrogen), transferred to polyvinylidene fluoride membranes, blocked in 5% nonfat milk in PBS or 4% bovine serum albumin (BSA) in PBS for phosphorylated proteins with 0.5% Tween-20, and immunostained.” left out

PARP = experiment: Western blot of PARP cleavage in HCT 116; type: cell-based, human; details: HCT 116, 10 ng/ml, 6 hours, compared to controls
Experimental: as §3, with “Samples were run on NuPAGE 4%-20% Bis-Tris gradient gels (Invitrogen), transferred to polyvinylidene fluoride membranes, blocked in 5% nonfat milk in PBS or 4% bovine serum albumin (BSA) in PBS for phosphorylated proteins with 0.5% Tween-20, and immunostained.” left out

Cn1ncc(Cl)c1-c1cc(C(=O)N[C@H](CN)Cc2ccc(F)c(F)c2)oc1Cl [GSK2141795]
CM^BM-MSC-induced invasion (HCT-8/E11 cells [1]; 0.1 μM, 24 hours): able to block | CM^BM-MSC-induced invasion (HCT-8/E11 cells [1]; 1 μM, 24 hours): able to block

CS(=O)(=O)CCNCc1ccc(-c2ccc3ncnc(Nc4ccc(OCc5cccc(F)c5)c(Cl)c4)c3c2)o1 [lapatinib]
decrease in CM^BM-MSC-induced HER3 activation (Y1289 p-HER3) (HER3): 72% | reduction of AKT activation (S473 p-AKT) in CM^BM-MSC-treated cells (AKT): 82% | CM^BM-MSC-induced invasion (invasion index) (HCT-8/E11 cells [1]): blocked | CM^BM-MSC-induced morphological response (factor shape) (HCT-8/E11 cells [1]): blocked

Recombinant human NRG-β1 EGF domain (from UniProt Q02297 177-241) (ligand)
Y1289 p-HER3 in HCT-8/E11 cells, Western blot, 15 minutes (HER3 (human)): 0.25 ng/mL

pertuzumab: recombinant, humanized mAb that specifically binds HER2 and prevents HER2 homo- and HER2/HER3 heterodimerisation
decrease in CM^BM-MSC-induced HER3 activation (Y1289 p-HER3) (HER3): 67% | reduction of AKT activation (S473 p-AKT) in CM^BM-MSC-treated cells (AKT): 79% | CM^T-MC-increased invasion (HCT-8/E11 cells [1]; HCT-8/E11, 24 hours, pertuzumab 25 μg/ml): partly inhibited | CM^BM-MSC-induced invasion (invasion index) (HCT-8/E11 cells [1]): blocked | CM^BM-MSC-induced morphological response (factor shape) (HCT-8/E11 cells [1]): blocked | CM^BM-MSC-induced CRC cell survival (total number of viable cells) (HCT-8/E11 cells [2]; pertuzumab 25 μg/ml, HCT-8/E11): significantly decreased | number of viable cells under control conditions (HCT-8/E11 cells [2]; pertuzumab 25 μg/ml, no CM): no statistically significant effect | CM^T-MC-increased growth of HCT-8/E11 cells (trophic effect) (HCT-8/E11 cells [2]; pertuzumab 25 μg/ml, serum-free): blocked | BM-MSC-enhanced tumorigenesis of HCT-8/E11 cells ([3]; 600 μg/mouse i.p.): significantly delayed | tumor weight ([3]; 600 μg/mouse i.p. three times a week, P=0.004): decreased | tumor volume ([3]; 600 μg/mouse i.p. three times a week, P=0.035): reduced | Ki67 proliferation index, difference vehicle vs treatment ([3]; 95% CI −4.8 to 15.2, P=0.276): 5.2 | Ki67 proliferation index ([3]; viable areas of resected xenografts): did not significantly affect

B1: rNRG-β1: Recombinant human NRG-β1 EGF domain supplied by R&D Systems (protein)
chain: SHLVKCAEKEKTFCVNGGECFMVKDLSNPSRYLCKCPNEFTGDRCQNYVMASFYKHLGIEFMEAE
concentration at which phosphorylation of HER3 was significant (HER3; HCT-8/E11, 15 minutes): 0.25 ng/mL | levels of S473 p-AKT (AKT; rNRG-β1-treated HCT-8/E11): higher levels | morphological changes and invasion into a collagen matrix (HCT-8/E11 cells [1]; HCT-8/E11, 10 ng/ml, 24 hours, P=0.049): induced | HCT-8/E11 cell number (HCT-8/E11 cells [2]; 0.1, 1, 10 ng/ml, serum-free, P=0.002 at 10 ng/ml): dose-dependent increase | HER2 activation (HER2): induced HER2 activation | morphological changes and invasion into a collagen matrix (HCT 116 cells): induced | morphological changes and invasion into a collagen matrix (SW480 cells): induced | levels of S136 p-BAD (BAD): higher levels | BAX/BCL-2 ratio (BAX/BCL-2): reduced | PARP cleavage (PARP): reduced
